Measured values taken from patent US20240158457A1, “INTERLEUKIN-18 RECEPTOR BINDING POLYPEPTIDES AND USES THEREOF” (Medikine, Inc., priority 2022, published 2024).
Where a SMILES comes first, the peptide text is derived from it. Bridges are numbered along the chain shown (N, C = ends).

Assays:
IL-18R = target: T1, IL-18R (Homo sapiens, UniProt O95256+Q13478); experiment: HEK-BLUE IL18R reporter assay for IL-18BP/IL-18 interaction (agonist activity with and without IL-18BP); format: cell-based; conditions: IL-18BP up to 100 nM; 30 nM dimer 10; FIG. 22B
T1 construct: host or cells: HEK293 (HEK-BLUE IL-18 reporter cell line)
T1 sequence (Q13478 19-541): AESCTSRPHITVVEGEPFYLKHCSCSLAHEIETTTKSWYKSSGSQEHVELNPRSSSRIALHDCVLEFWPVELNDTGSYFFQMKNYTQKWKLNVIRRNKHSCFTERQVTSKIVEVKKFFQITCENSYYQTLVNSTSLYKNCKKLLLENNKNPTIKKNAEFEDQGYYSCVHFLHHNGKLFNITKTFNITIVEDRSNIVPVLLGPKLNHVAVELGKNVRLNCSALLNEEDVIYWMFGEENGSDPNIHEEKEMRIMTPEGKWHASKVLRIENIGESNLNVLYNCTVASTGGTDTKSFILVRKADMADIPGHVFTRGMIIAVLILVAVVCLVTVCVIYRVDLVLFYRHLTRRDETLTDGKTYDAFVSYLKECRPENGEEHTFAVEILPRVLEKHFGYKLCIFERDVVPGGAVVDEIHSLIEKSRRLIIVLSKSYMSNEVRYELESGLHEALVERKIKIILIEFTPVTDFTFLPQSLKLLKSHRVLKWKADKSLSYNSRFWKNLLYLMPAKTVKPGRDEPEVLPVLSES
T1 sequence (O95256 20-599): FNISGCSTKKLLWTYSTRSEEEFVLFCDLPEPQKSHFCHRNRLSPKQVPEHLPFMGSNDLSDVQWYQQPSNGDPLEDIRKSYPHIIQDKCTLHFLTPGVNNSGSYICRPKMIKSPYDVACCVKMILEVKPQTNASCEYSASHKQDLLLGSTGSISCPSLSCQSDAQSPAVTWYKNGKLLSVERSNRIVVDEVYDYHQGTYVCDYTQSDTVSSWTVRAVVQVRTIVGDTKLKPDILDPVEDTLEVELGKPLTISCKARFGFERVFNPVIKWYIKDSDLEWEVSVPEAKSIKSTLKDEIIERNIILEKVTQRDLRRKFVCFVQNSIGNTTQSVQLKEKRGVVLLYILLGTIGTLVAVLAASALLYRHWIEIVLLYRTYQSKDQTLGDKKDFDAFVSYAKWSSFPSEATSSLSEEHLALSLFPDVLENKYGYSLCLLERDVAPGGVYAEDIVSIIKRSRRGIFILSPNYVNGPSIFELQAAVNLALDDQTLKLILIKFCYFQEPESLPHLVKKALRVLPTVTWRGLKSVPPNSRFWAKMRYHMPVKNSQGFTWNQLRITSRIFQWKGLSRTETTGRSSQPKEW
Text: IL-18 is negatively regulated by a decoy receptor called IL-18 binding protein (IL-18BP), a secreted antagonist that binds IL-18 with extremely high affinity. HEK-BLUE™ IL-18 reporter cell line (InvivoGen #hkb-hmil 18, California, USA) was used to determine the impact of heterodimer peptides composed of IL-18Ra and IL-18Rb binding peptides on the IL-18BP/IL-18 interaction. The IL-18 Reporter assay, as described in detail in Example 2, was used to investigate this interaction with the following modifications.
A serial dilution (7-point, 10-fold) of IL-18BP Fc fusion (Acro #ILP-H5253) starting at 2 μM (20-fold final concentration) was prepared in test medium in a v-bottom polypropylene 96-well plate. Human recombinant IL-18 (R&D Systems #9124-IL-050/CF) and a representative peptide agonist were prepared at 30 pM and 600 nM respectively (both at 20-fold final concentration and at approximately their respective EC70s). […] Absorbance signal at 630 nm was then measured on a plate reader. Half maximal inhibition concentration (IC50) was calculated based on a variable slope and four parameter analysis using GraphPad Prism software. When no inhibition was measured the data points were connected without a curve fit. Absorbance readings were converted to percent total of signal span, for IL-18 and peptide agonist respectively, and graphed as NF-κB reporter activity (% max).

[1] = target: T2, IL-18 Binding Protein (IL-18BP) (Homo sapiens, UniProt O95998); experiment: Direct binding ELISA for IL-18BP; conditions: C-terminally biotinylated forms of peptides; at up to 100 nM IL-18BP
T2 construct: purchased ACROBiosystems (Acro); R&D Systems ILP-H5253; 119-BP
T2 sequence (O95998 31-194): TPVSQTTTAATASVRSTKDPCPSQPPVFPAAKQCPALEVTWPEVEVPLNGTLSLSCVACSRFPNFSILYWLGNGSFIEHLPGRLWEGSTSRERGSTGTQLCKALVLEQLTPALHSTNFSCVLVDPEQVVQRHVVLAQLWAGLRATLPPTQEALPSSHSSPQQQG
Method: Binding of synthetic monomer peptides to IL-18 Binding Protein (IL-18BP) was measured using a direct binding ELISA. Briefly, 96-well ELISA plates were coated with NeutrAvidin (NA) at 5 μg per well in PBS, washed, then blocked with PBS containing 1% BSA. Wells were washed and representative peptides, synthesized with a C-terminal biotin were diluted to 300 nM in assay buffer and added to the NA coated wells. Wells were washed and serial dilutions starting at 100 nM of IL-18R subunits, IL-18BP from either of two sources (Acro #ILP-H5253 and R&D #119-BP), and control IgG Fc fusions) were added to the wells and incubated for 1 hr at 4° C. Then plates were washed and goat anti-human IgG Fc-HRP (Southern Biotech #2048-05) detection antibody was added for 1 hr. Wells were developed with TMB for 5-15 min and the enzyme reaction was stopped with a H2SO4 solution.

| inhibition of agonist activity by IL-18BP (IL-18R) | binding to IL-18BP [1] | Compound |
| --- | --- | --- |
| does not inhibit |  | CC[C@H](C)[C@H](NC(=O)[C@@H]1CSSC[C@H](NC(=O)[C@H](CCC(=O)O)NC(=O)[C@H](Cc2ccccc2)NC(=O)[C@H](Cc2ccccc2)NC(=O)CNC(=O)CNC(=O)[C@H](CO)NC(=O)CNC(=O)CCc2cn(CC[C@H](NC(=O)[C@H](CC(C)C)NC(=O)[C@@H]3CSSC[C@H](NC(=O)[C@H](CC(C)C)NC(=O)CNC(=O)CN)C(=O)N[C@@H](Cc4c[nH]c5ccccc45)C(=O)N[C@@H](Cc4ccc(O)cc4)C(=O)N[C@@H](Cc4ccccc4)C(=O)NCC(=O)NCC(=O)N[C@@H]([C@@H](C)O)C(=O)N[C@@H](C(C)C)C(=O)N[C@@H](CCCNC(=N)N)C(=O)NCC(=O)N4CCC[C@H]4C(=O)N3)C(N)=O)nn2)C(=O)N[C@@H](Cc2ccccc2)C(=O)N[C@@H](Cc2ccc(O)cc2)C(=O)N[C@@H](CO)C(=O)N2CCC[C@H]2C(=O)NCC(=O)N[C@@H](Cc2c[nH]cn2)C(=O)N[C@@H](CCC(=O)O)C(=O)N[C@@H](Cc2c[nH]c3ccccc23)C(=O)N1)C(=O)N1CCC[C@H]1C(=O)N[C@@H](CO)C(=O)NCC(=O)NCC(N)=O [Dimer 10] |
|  | did not exhibit binding | CC(C)C[C@H](NC(=O)CNC(=O)CN)C(=O)N[C@H]1CSSC[C@@H](C(=O)N[C@@H](CC(C)C)C(=O)NCC(=O)NCC(=O)O)NC(=O)[C@@H]2CCCN2C(=O)CNC(=O)[C@H](CCCNC(=N)N)NC(=O)[C@H](C(C)C)NC(=O)[C@H]([C@@H](C)O)NC(=O)CNC(=O)CNC(=O)[C@H](Cc2ccccc2)NC(=O)[C@H](Cc2ccc(O)cc2)NC(=O)[C@H](Cc2c[nH]c3ccccc23)NC1=O [Family 2 synthetic construct, GGLCWYFGGTVRGPCLGG] (H-GGLCWYFGGTVRGPCLGG-OH; disulfide 4-15; N-terminus and C-terminus assumed) |
|  | did not exhibit binding | CC[C@H](C)[C@@H]1NC(=O)[C@H](CCC(=O)O)NC(=O)[C@H](CO)NC(=O)[C@H](CC(C)C)NC(=O)[C@H](Cc2c[nH]cn2)NC(=O)[C@H](CC(=O)O)NC(=O)[C@H](CO)NC(=O)[C@H](CC(C)C)NC(=O)[C@H](Cc2c[nH]c3ccccc23)NC(=O)[C@H](CC(N)=O)NC(=O)[C@@H]2CCCN2C(=O)[C@@H](NC(=O)CNC(=O)CN)CSSC[C@@H](C(=O)NCC(=O)NCC(=O)O)NC(=O)[C@H](Cc2c[nH]c3ccccc23)NC1=O [Dimer 5C09, GGCPNWLSDHLSEIWCGG] (H-GGCPNWLSDHLSEIWCGG-OH; disulfide 3-16; N-terminus and C-terminus assumed) |
|  | did not exhibit binding | GGELCWRPFSFVDCEEGG [alpha Synthetic Fla Consensus Construct] |
